Test results taken from publication PMC11372264, “^61Cu-PSMA–Targeted PET for Prostate Cancer: From Radiotracer Development to First-in-Human Imaging” (Journal of Nuclear Medicine, 2024).

How the values were obtained:
[1] = In vivo metabolic stability (radio-HPLC of urine, liver and kidney homogenates); set-up: species or system BALB/c mice; settings: 1 h after injection
Description: The stability of [^61Cu]Cu-DOTAGA-PSMA-I&T and [^61Cu]Cu-NODAGA-PSMA-I&T was assessed by radio–reversed-phase high-performance liquid chromatography in urine and in liver and kidney homogenates from healthy BALB/c mice after injection of 100 µL/400 pmol/8–9 MBq of each radiotracer. Details are provided in the supplemental materials.

[2] = tested on: LNCaP xenografts; test: Biodistribution in LNCaP xenografts; type: in vivo, mice
Description: All animal experiments were conducted in accordance with Swiss animal welfare laws and regulations under license number 30515 granted by the Veterinary Office, Department of Health, Canton Basel-Stadt, Switzerland. Male athymic nude-Foxn1^nu/Foxn1^+ mice (Envigo), 4–6 wk old, were inoculated subcutaneously on the shoulder with 10^7 LNCaP cells, freshly suspended in a 1:1 ratio of sterile minimum essential medium with basal medium Eagle and Matrigel. The tumors were allowed to grow to a volume of approximately 200 mm^3.
The biodistribution of [^61Cu]Cu-DOTAGA-PSMA-I&T and [^61Cu]Cu-NODAGA-PSMA-I&T (100 µL/200 pmol/2–3 MBq) was compared with that of [^68Ga]Ga-DOTAGA-PSMA-I&T, [^68Ga]Ga-NODAGA-PSMA-I&T, and [^68Ga]Ga-PSMA-11 (100 µL/200 pmol/3–5 MBq), as well as [^18F]PSMA-1007 (100 µL/70 pmol/15 MBq). This comparison was conducted at 1 h after injection for all radiotracers and at 4 h after injection for the ^61Cu-labeled tracers and [^18F]PSMA-1007. The specificity of the ^61Cu-labeled tracers was assessed at 1 h after injection by blocking studies with 2-(phosphonomethyl)pentanedioic acid (100 µL/1.3 µmol) being injected 3–5 min before the injection of the radiotracer.

[3] = Stability of radiotracer at room temperature (radiochemical purity over time); type: physicochemical; settings: 24 MBq/nmol, 4 h
Description: [^61Cu]Cu-DOTAGA-PSMA-I&T and [^61Cu]Cu-NODAGA-PSMA-I&T were synthesized with radiolabeling yield of more than 98% and radiochemical purity of more than 97% (radio–high-performance liquid chromatography analysis) at an apparent molar activity of 24 MBq/nmol. Thus, no purification was required after labeling. Although [^61Cu]Cu-DOTAGA-PSMA-I&T needed elevated temperature (95°C) and 15 min of reaction time, [^61Cu]Cu-NODAGA-PSMA-I&T was synthesized at room temperature within 5 min. After 4 h at room temperature, the radiochemical purity of [^61Cu]Cu-DOTAGA-PSMA-I&T dropped to approximately 90%, whereas it remained stable (∼97%) for [^61Cu]Cu-NODAGA-PSMA-I&T. All analytic data and quality control results are provided in Supplemental Figures 1 and 2 and in Supplemental Tables 1 and 2.
With inexpensive ^natNi as the starting material, highly pure ^61Cu could be produced with radionuclidic purity exceeding 99.99% at 12 h after synthesis (details on the production will be published elsewhere). The preparation of [^61Cu]Cu-NODAGA-PSMA-I&T was performed in widely used buffers at room temperature within 5 min. […] High labeling yields and suitable molar activities for clinical use eliminate the need for any purification step after labeling. […]

[4] = Lipophilicity: distribution coefficient in 1:1 1-octanol/phosphate-buffered saline at pH 7.4; type: physicochemical
Description: (§1) The lipophilicity of [^61Cu]Cu-DOTAGA-PSMA-I&T and [^61Cu]Cu-NODAGA-PSMA-I&T was assessed by determining the distribution coefficient in a 1:1 mixture of 1-octanol–to–phosphate-buffered saline at pH 7.4, in comparison with all reference radiotracers. Inhibitory concentration of 50% (IC50) was assessed by competition binding on lymph node carcinoma of the prostate (LNCaP) using ((S)-1-carboxy-5-(4-(-^125I-iodo-benzamido)pentyl)carbamoyl)-L-glutamic acid as the reference radioligand. Cellular uptake and distribution were assessed in LNCaP cells at 5, 15, 30, 60, and 120 min after exposure to the radioligand at 37°C, either alone or in the presence of 10 µM 2-(phosphonomethyl)pentanedioic acid to distinguish between specific and nonspecific uptake.

[5] = tested on: LNCaP cells; test: Cellular uptake and distribution (surface-bound, internalized) in LNCaP cells; type: cell-based; settings: 1 h, 37°C
Description: as §1
FIGURE 1. In vitro assessment in LNCaP cells after 1 h at 37°C. (A) Competition binding activity curves of ^natCu-DOTAGA-PSMA-I&T, ^natCu-NODAGA-PSMA-I&T, and ^natGa-PSMA-11 on LNCaP cells after 1 h of incubation on ice, using ((S)-1-carboxy-5-(4-(-^125I-iodo-benzamido)pentyl)carbamoyl)-L-glutamic acid ([^125I-BA]KuE) at concentration of 0.2 nM as reference radioligand. (B) Cellular uptake (surface-bound + internalized). Cell surface–bound and internalized fractions are indicated. Results represent mean ± SD of specific (total − nonspecific) uptake from minimum of 2 separate experiments, each in triplicate.

[6] = 1 h after injection, blocking with 2-(phosphonomethyl)pentanedioic acid 1.3 µmol

O=C([O-])CN1CCN(CC(=O)O)CCN(CC(=O)[O-])CCN(C(CCC(=O)N[C@H](Cc2ccc(O)c(I)c2)C(=O)N[C@H](Cc2ccccc2)C(=O)N[C@H](CCCCNC(=O)CCCCCCC(=O)NCCCC[C@H](NC(=O)N[C@@H](CCC(=O)O)C(=O)O)C(=O)O)C(=O)O)C(=O)O)CC1.[61Cu+2] (stereo partly drawn) [[^61Cu]Cu-DOTAGA-PSMA-I&T, DOTAGA-(l-y)fk(sub-KuE)]
Release of ^61Cu in the liver [1]: approximately 70%
Biodistribution, Adrenals ([2]; 1 h after injection): 9.35 ± 1.50 %IA/g
Biodistribution, Blood ([2]; 1 h after injection): 2.06 ± 0.24 %IA/g
Biodistribution, Femur ([2]; 1 h after injection): 2.31 ± 0.36 %IA/g
Biodistribution, Heart ([2]; 1 h after injection): 3.73 ± 0.32 %IA/g
Biodistribution, Intestine ([2]; 1 h after injection): 8.95 ± 0.62 %IA/g
Biodistribution, Kidneys ([2]; 1 h after injection): 57.1 ± 6.3 %IA/g
Biodistribution, Liver ([2]; 1 h after injection): 19.3 ± 3.3 %IA/g
Biodistribution, Lung ([2]; 1 h after injection): 6.35 ± 0.35 %IA/g
Biodistribution, Muscles ([2]; 1 h after injection): 1.00 ± 0.05 %IA/g
Biodistribution, Pancreas ([2]; 1 h after injection): 2.82 ± 0.67 %IA/g
Biodistribution, Salivary glands ([2]; 1 h after injection): 5.60 ± 1.39 %IA/g
Biodistribution, Spleen ([2]; 1 h after injection): 4.64 ± 1.35 %IA/g
Biodistribution, Stomach ([2]; 1 h after injection): 7.77 ± 0.62 %IA/g
Biodistribution, Tumor (tumor uptake) ([2]; 1 h after injection): 6.06 ± 0.25 %IA/g
Tumor-to-Adrenals ratio ([2]; 1 h after injection): 0.66 ± 0.13
Tumor-to-Blood ratio ([2]; 1 h after injection): 2.97 ± 0.23
Tumor-to-Intestine ratio ([2]; 1 h after injection): 0.68 ± 0.07
Tumor-to-Kidneys ratio ([2]; 1 h after injection): 0.11 ± 0.01
Tumor-to-Liver ratio ([2]; 1 h after injection): 0.32 ± 0.05
Tumor-to-Muscles ratio ([2]; 1 h after injection): 6.08 ± 0.22
Tumor-to-Salivary glands ratio ([2]; 1 h after injection): 1.14 ± 0.34
Tumor-to-Spleen ratio ([2]; 1 h after injection): 1.37 ± 0.29
Biodistribution, Adrenals [2, 6]: 3.25 ± 0.92 %IA/g
Biodistribution, Blood [2, 6]: 1.36 ± 0.15 %IA/g
Biodistribution, Femur [2, 6]: 1.50 ± 0.21 %IA/g
Biodistribution, Heart [2, 6]: 2.34 ± 0.11 %IA/g
Biodistribution, Intestine [2, 6]: 8.78 ± 2.18 %IA/g
Biodistribution, Kidneys [2, 6]: 8.76 ± 1.57 %IA/g
Biodistribution, Liver [2, 6]: 14.3 ± 1.7 %IA/g
Biodistribution, Lung [2, 6]: 5.62 ± 1.61 %IA/g
Biodistribution, Muscles [2, 6]: 0.63 ± 0.10 %IA/g
Biodistribution, Pancreas [2, 6]: 1.89 ± 0.34 %IA/g
Biodistribution, Salivary glands [2, 6]: 3.25 ± 0.94 %IA/g
Biodistribution, Spleen [2, 6]: 2.46 ± 0.47 %IA/g
Biodistribution, Stomach [2, 6]: 7.52 ± 1.58 %IA/g
Biodistribution, Tumor [2, 6]: 3.31 ± 0.26 %IA/g
Biodistribution, Adrenals ([2]; 4 h after injection): 6.46 ± 2.38 %IA/g
Biodistribution, Blood ([2]; 4 h after injection): 1.12 ± 0.24 %IA/g
Biodistribution, Femur ([2]; 4 h after injection): 1.69 ± 0.25 %IA/g
Biodistribution, Heart ([2]; 4 h after injection): 2.08 ± 0.33 %IA/g
Biodistribution, Intestine ([2]; 4 h after injection): 7.74 ± 1.76 %IA/g
Biodistribution, Kidneys ([2]; 4 h after injection): 22.1 ± 2.2 %IA/g
Biodistribution, Liver ([2]; 4 h after injection): 13.9 ± 2.2 %IA/g
Biodistribution, Lung ([2]; 4 h after injection): 4.67 ± 0.76 %IA/g
Biodistribution, Muscles ([2]; 4 h after injection): 0.48 ± 0.08 %IA/g
Biodistribution, Pancreas ([2]; 4 h after injection): 1.71 ± 0.23 %IA/g
Biodistribution, Salivary glands ([2]; 4 h after injection): 2.31 ± 0.19 %IA/g
Biodistribution, Spleen ([2]; 4 h after injection): 2.95 ± 0.73 %IA/g
Biodistribution, Stomach ([2]; 4 h after injection): 7.10 ± 0.97 %IA/g
Biodistribution, Tumor (tumor uptake) ([2]; 4 h after injection): 4.88 ± 0.63 %IA/g
Tumor-to-Adrenals ratio ([2]; 4 h after injection): 0.81 ± 0.22
Tumor-to-Blood ratio ([2]; 4 h after injection): 4.56 ± 1.49
Tumor-to-Intestine ratio ([2]; 4 h after injection): 0.66 ± 0.23
Tumor-to-Kidneys ratio ([2]; 4 h after injection): 0.22 ± 0.04
Tumor-to-Liver ratio ([2]; 4 h after injection): 0.35 ± 0.05
Tumor-to-Muscles ratio ([2]; 4 h after injection): 10.5 ± 2.8
Tumor-to-Salivary glands ratio ([2]; 4 h after injection): 2.13 ± 0.43
Tumor-to-Spleen ratio ([2]; 4 h after injection): 1.73 ± 0.46
Blood values and background activity, fold higher than [^61Cu]Cu-NODAGA-PSMA-I&T ([2]; LNCaP xenografts): approximately 10 fold
Radiochemical purity after 4 h at room temperature [3]: approximately 90%
logDpH7.4 [4]: −2.69 ± 0.44
Cellular uptake (surface-bound + internalized) ([5]; specific uptake): 26.6% ± 1.3%
Internalized fraction ([5]; % of applied activity): 13.3 ± 0.5%
Surface-bound fraction ([5]; % of applied activity): 13.4 ± 0.8%
